# Measured values taken from patent US20010047090A1, “VANILREP1 polynucleotides and VANILREP1 polypeptides” (priority 1998, published 2001).
# Legend:
# [1] = target: T1, VANILREP1 (Homo sapiens, UniProt Q8NER1); experiment: Two-electrode voltage-clamp recordings in Xenopus laevis oocytes injected with VANILREP1 cDNA; format: cell-based; details: oocytes expressing VANILREP1, held at −60mV; capsaicin over a range of concentrations; FIG. 1
# T1 construct: expressed in transfected cells; host or cells: Xenopus laevis oocytes (nuclear injection of cDNA)
# Method: (§1) Xenopus laevis oocyte removal and dissociation were performed. Injections of cDNA for […]1 were made into the nuclei of defolliculated oocytes (1.5ng cDNA/oocyte). After injection the oocytes were incubated between 19-22° C. in modified Barth's solution (MBS) plus gentamycin (0.1mg/ml, pH 7.4) and used for electrophysiological recordings within 2-4 days.
# (§2) For electrophysiological recordings oocytes were placed in a recording chamber and continuously perfused with a solution containing in mM: NaCl 88, KCI 1, NaHCO3 2.4, HEPES 15, MgCI2 1, BaCI2 0.1. (14 ml min^−1). Solution was applied using large bore tubing (internal diameter 1.5mm) which facilitated rapid solution exchange half-time 350 -1000 ms). Oocytes were held under voltage clamp at −60mV using the two-electrode voltage-clamp technique. Electrodes were low resistance (0.5-3 MΩ) and were filled with 3 M KCI.
# (§3) Currents were evoked in response to application of capsaicin applied through the perfusion system until the maximum current amplitude was reached.
# [2] = target: T2, VANILREP1 (Homo sapiens, UniProt Q8NER1, K571I/M315I/M572C); experiment: as above; format: cell-based
# T2 construct: expressed in transfected cells; host or cells: Xenopus laevis oocytes (nuclear injection of cDNA)
# Method: as §1, §2, §3
# T2 sequence (Q8NER1 whole entry M315I/K571I/M572C): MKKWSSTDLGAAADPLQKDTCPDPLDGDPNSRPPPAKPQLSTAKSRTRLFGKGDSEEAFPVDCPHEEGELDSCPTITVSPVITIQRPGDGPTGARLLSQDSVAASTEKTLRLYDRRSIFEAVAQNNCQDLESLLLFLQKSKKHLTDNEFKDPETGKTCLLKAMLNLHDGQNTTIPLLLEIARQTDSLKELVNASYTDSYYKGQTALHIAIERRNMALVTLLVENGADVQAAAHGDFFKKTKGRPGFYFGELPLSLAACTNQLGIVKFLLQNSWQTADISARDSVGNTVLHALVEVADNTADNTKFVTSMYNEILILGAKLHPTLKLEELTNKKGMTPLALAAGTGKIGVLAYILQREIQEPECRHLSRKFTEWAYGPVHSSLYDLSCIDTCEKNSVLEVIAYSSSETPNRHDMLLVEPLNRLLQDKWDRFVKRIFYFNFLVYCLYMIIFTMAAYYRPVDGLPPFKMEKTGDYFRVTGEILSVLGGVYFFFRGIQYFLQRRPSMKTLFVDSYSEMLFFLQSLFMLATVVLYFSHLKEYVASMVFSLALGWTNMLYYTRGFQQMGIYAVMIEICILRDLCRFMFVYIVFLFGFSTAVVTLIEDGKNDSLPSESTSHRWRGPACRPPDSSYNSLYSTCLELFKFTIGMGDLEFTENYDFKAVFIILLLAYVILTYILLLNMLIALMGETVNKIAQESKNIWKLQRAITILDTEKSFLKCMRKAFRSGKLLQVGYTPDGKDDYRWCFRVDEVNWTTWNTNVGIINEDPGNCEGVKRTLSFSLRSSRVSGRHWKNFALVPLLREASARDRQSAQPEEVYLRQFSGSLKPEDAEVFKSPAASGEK
# T1 sequence (Q8NER1 whole entry M315I/K571I/M572C): as above
currents evoked in response to application of capsaicin [1],"inhibition of the capsaicin evoked response ([2]; capsazepine 10uM against capsaicin 1uM, oocytes expressing VANILREP1, FIG. 2)","reversibility of the inhibition of the capsaicin evoked response ([2]; capsazepine 10uM, capsaicin 1uM, extended washing)",Structure (SMILES)
currents evoked,–,–,COc1cc(CNC(=O)CCCC/C=C/C(C)C)ccc1O [capsaicin]
–,inhibition,reversible with extended washing,Oc1cc2c(cc1O)CN(C(=S)NCCc1ccc(Cl)cc1)CCC2 [capsazepine]
